Assay results reported in ChEMBL document CHEMBL2440076, “New triarylpyrazoles as broad-spectrum anticancer agents: design, synthesis, and biological evaluation” (Eur J Med Chem, 2013).
pIC50: −log10 of the molar value.

What was measured:
[1] = tested on: BT-549; test: Growth inhibition of human BT549 cells after 48 hrs by sulforhodamine B assay; assay type: functional; conditions: BT-549, 48 h
[2] = tested on: SK-MEL-28; test: Growth inhibition of human SK-MEL-28 cells assessed as cell growth at 10 uM after 48 hrs by sulforhodamine B assay; assay type: functional; conditions: SK-MEL-28, 48 h, read-out: Activity
[3] = tested on: SW-620; test: Growth inhibition of human SW620 cells assessed as cell growth at 10 uM after 48 hrs by sulforhodamine B assay; assay type: functional; conditions: SW-620, 48 h, read-out: Activity
[4] = tested on: NCI-H322M; test: Growth inhibition of human NCI-H322M cells assessed as cell growth at 10 uM after 48 hrs by sulforhodamine B assay; assay type: functional; conditions: read-out: Activity
[5] = tested on: RXF 393; test: Growth inhibition of human RXF393 cells after 48 hrs by sulforhodamine B assay; assay type: functional; conditions: RXF 393, 48 h
[6] = tested on: ACHN; test: Growth inhibition of human ACHN cells after 48 hrs by sulforhodamine B assay; assay type: functional
[7] = tested on: SW-620; test: Growth inhibition of human SW620 cells after 48 hrs by sulforhodamine B assay; assay type: functional; conditions: SW-620, 48 h
[8] = tested on: SK-MEL-28; test: Growth inhibition of human SK-MEL-28 cells after 48 hrs by sulforhodamine B assay; assay type: functional; conditions: SK-MEL-28, 48 h
[9] = tested on: BT-549; test: Growth inhibition of human BT549 cells assessed as cell growth at 10 uM after 48 hrs by sulforhodamine B assay; assay type: functional; conditions: BT-549, 48 h, read-out: Activity
[10] = tested on: NCI-H226; test: Growth inhibition of human NCI-H226 cells assessed as cell growth at 10 uM after 48 hrs by sulforhodamine B assay; assay type: functional; conditions: NCI-H226, 48 h, read-out: Activity
[11] = tested on: MOLT-4; test: Growth inhibition of human MOLT4 cells assessed as cell growth at 10 uM after 48 hrs by sulforhodamine B assay; assay type: functional; conditions: MOLT-4, 48 h, read-out: Activity
[12] = tested on: MDA-MB-435; test: Growth inhibition of human MDA-MB-435 cells assessed as cell growth at 10 uM after 48 hrs by sulforhodamine B assay; assay type: functional; conditions: MDA-MB-435, 48 h, read-out: Activity
[13] = tested on: CAKI-1; test: Growth inhibition of human CAKI-1 cells assessed as cell growth at 10 uM after 48 hrs by sulforhodamine B assay; assay type: functional; conditions: CAKI-1, 48 h, read-out: Activity
[14] = tested on: SN12C; test: Growth inhibition of human SN12C cells assessed as cell growth at 10 uM after 48 hrs by sulforhodamine B assay; assay type: functional; conditions: read-out: Activity
[15] = Growth inhibition of human HCC2998 cells after 48 hrs by sulforhodamine B assay; assay type: functional; conditions: HCC 2998, 48 h
[16] = tested on: NCI-H522; test: Growth inhibition of human NCI-H522 cells after 48 hrs by sulforhodamine B assay; assay type: functional; conditions: NCI-H522, 48 h
[17] = tested on: UACC-62; test: Growth inhibition of human UACC62 cells after 48 hrs by sulforhodamine B assay; assay type: functional; conditions: UACC-62, 48 h
[18] = tested on: A498; test: Growth inhibition of human A498 cells after 48 hrs by sulforhodamine B assay; assay type: functional, cell-based; conditions: A498, 48 h
[19] = tested on: ACHN; test: Growth inhibition of human ACHN cells assessed as cell growth at 10 uM after 48 hrs by sulforhodamine B assay; assay type: functional; conditions: read-out: Activity
[20] = tested on: MCF7; test: Growth inhibition of human MCF7 cells assessed as cell growth at 10 uM after 48 hrs by sulforhodamine B assay; assay type: functional; conditions: MCF7, 48 h, read-out: Activity
[21] = tested on: KM12; test: Growth inhibition of human KM12 cells assessed as cell growth at 10 uM after 48 hrs by sulforhodamine B assay; assay type: functional; conditions: KM12, 48 h, read-out: Activity
[22] = tested on: COLO 205; test: Growth inhibition of human COLO205 cells after 48 hrs by sulforhodamine B assay; assay type: functional; conditions: COLO 205, 48 h
[23] = tested on: HCT-116; test: Growth inhibition of human HCT116 cells after 48 hrs by sulforhodamine B assay; assay type: functional; conditions: HCT-116, 48 h
[24] = tested on: A498; test: Growth inhibition of human A498 cells assessed as cell growth at 10 uM after 48 hrs by sulforhodamine B assay; assay type: functional; conditions: A498, 48 h, read-out: Activity
[25] = tested on: SF-539; test: Growth inhibition of human SF539 cells assessed as cell growth at 10 uM after 48 hrs by sulforhodamine B assay; assay type: functional; conditions: SF-539, 48 h, read-out: Activity
[26] = tested on: RPMI-8226; test: Growth inhibition of human RPMI8226 cells assessed as cell growth at 10 uM after 48 hrs by sulforhodamine B assay; assay type: functional; conditions: RPMI-8226, 48 h, read-out: Activity
[27] = tested on: 786-0; test: Growth inhibition of human 786-0 cells assessed as cell growth at 10 uM after 48 hrs by sulforhodamine B assay; assay type: functional; conditions: 786-0, 48 h, read-out: Activity
[28] = tested on: SF-295; test: Growth inhibition of human SF295 cells after 48 hrs by sulforhodamine B assay; assay type: functional, cell-based; conditions: SF-295, 48 h
[29] = tested on: SF-539; test: Growth inhibition of human SF539 cells after 48 hrs by sulforhodamine B assay; assay type: functional; conditions: SF-539, 48 h
[30] = tested on: UACC-62; test: Growth inhibition of human UACC62 cells assessed as cell growth at 10 uM after 48 hrs by sulforhodamine B assay; assay type: functional; conditions: UACC-62, 48 h, read-out: Activity
[31] = tested on: DU-145; test: Growth inhibition of human DU145 cells assessed as cell growth at 10 uM after 48 hrs by sulforhodamine B assay; assay type: functional; conditions: DU-145, 48 h, read-out: Activity
[32] = tested on: IGROV-1; test: Growth inhibition of human IGROV1 cells after 48 hrs by sulforhodamine B assay; assay type: functional; conditions: IGROV-1, 48 h
[33] = tested on: UACC-257; test: Growth inhibition of human UACC257 cells assessed as cell growth at 10 uM after 48 hrs by sulforhodamine B assay; assay type: functional; conditions: UACC-257, 48 h, read-out: Activity
[34] = tested on: UACC-257; test: Growth inhibition of human UACC257 cells after 48 hrs by sulforhodamine B assay; assay type: functional; conditions: UACC-257, 48 h
[35] = read-out: LC50 (the source's name)

COc1cc(-c2nn(-c3cccc(NC(=O)Nc4cccc(C(F)(F)F)c4)c3)cc2-c2ccncc2)ccc1Cl
GI50 [1]: 1.25 µM | LC50 (50% lethal concentration) [1]: 50 µM | TGI [1]: 3.81 µM | growth at 10 µM [2]: -18.6% | growth at 10 µM [3]: 8.92% | growth at 10 µM [4]: 21.7% | GI50 [5]: 0.777 µM | LC50 (concentration killing 50% of cells) [5]: 4.83 µM | TGI [5]: 1.94 µM | GI50 [6]: 0.656 µM | TGI [6]: 3.72 µM | CC50 [6, 35]: > 50 µM | GI50 [7]: 1.23 µM | TGI [7]: 14.3 µM | CC50 [7, 35]: 50 µM | GI50 [8]: 1.12 µM | LC50 [8]: 21.1 µM | TGI [8]: 3.35 µM | growth at 10 µM [9]: -15.4% | growth at 10 µM [10]: 4.3% | growth at 10 µM [11]: -26.3% | growth at 10 µM [12]: -50% | growth at 10 µM [13]: 11.5% | growth at 10 µM [14]: 7.22% | GI50 [15]: 1.19 µM | TGI [15]: 3.2 µM | CC50 [15, 35]: 15.3 µM | GI50 [16]: 0.714 µM | LC50 (concentration killing 50% of cells) [16]: > 50 µM | TGI [16]: 2.43 µM | GI50 [17]: 0.725 µM | LC50 (50% lethal concentration) [17]: 3.48 µM | TGI [17]: 1.59 µM | GI50 [18]: 0.958 µM | pIC50 [18]: 6.02 | TGI [18]: 4.04 µM | CC50 [18, 35]: > 50 µM | growth at 10 µM [19]: 6.54% | growth at 10 µM [20]: -6.3% | growth at 10 µM [21]: -27.8% | GI50 [22]: 0.894 µM | LC50 (concentration killing 50% of cells) [22]: 3.43 µM | TGI [22]: 1.75 µM | GI50 [23]: 0.9 µM | TGI [23]: 7.17 µM | CC50 [23, 35]: > 50 µM | growth at 10 µM [24]: -5.17% | growth at 10 µM [25]: -34.2% | growth at 10 µM [26]: -14.8% | growth at 10 µM [27]: -15% | GI50 [28]: 0.306 µM | pIC50 [28]: 6.51 | TGI [28]: 1.13 µM | CC50 [28, 35]: 3.2 µM | GI50 [29]: 0.89 µM | LC50 (concentration killing 50% of cells) [29]: 21 µM | TGI [29]: 2.42 µM | growth at 10 µM [30]: -76.1% | growth at 10 µM [31]: 9.75% | GI50 [32]: 1.06 µM | LC50 (concentration killing 50% of cells) [32]: 50 µM | TGI [32]: 3.11 µM | growth at 10 µM [33]: -52.9% | GI50 [34]: 0.923 µM | TGI [34]: 2.31 µM | CC50 [34, 35]: 7.58 µM
